Patent US20210283163A1, “COMPOSITIONS AND METHODS FOR THE TREATMENT OF ACUTE AND CHRONIC PRURITIS” (Duke University, priority 2018, published 2021)
Read-outs that look alike come from different tables or passages of the source.

Columns and labels:
mice = test: Persistent itch after intradermal adenovirus (AV) overexpression of hsa-miR-711; type: in vivo, mouse; settings: 10 days after the AV injection, A-967079 50 μM, hsa-miR-711 inhibitor 100 μM, blocking peptide 2 μM
Description: (§1) Behavioral Assessment for Scratching (Itch) and Wiping (Pain). Mice were shaved on the cheek or nape after a brief anesthesia with isoflurane. Before experiments, mice were habituated in small plastic chambers (14×18×12 cm) daily for two days. The room temperature and humidity remained stable for all the experiments. […] After the injection, the number of scratches in 60 min was counted. A scratch was counted when a mouse lifted its hind paw to scratch the shaved region and returned the paw to the floor or to the mouth. A bout of wiping was defined as a continuous wiping movement with a forepaw directing at the area of the injection area (Shimada and LaMotte, Pain 2008, 139, 681-687). Scratching and wiping behavior was videoed for 30 min or 60 min using Sony HDR-CX610 camera. The video was subsequently played back offline and the numbers of scratches and wipes were quantified in a blinded manner.
miRNA Measurement by Quantitative Real-Time RT-PCR (qPCR). Total RNA was isolated from serum of CTCL mice or adenovirus-treated mice using Qiazol Lysis Reagent (QIAGEN) together with miRNeasy Serum/Plasma Kit (Park et al., Neuron 2014, 82, 47-54). All RNA samples were immediately used or kept at −80° C. until further processing. To convert mature miRNA into cDNA, 6 μl of total RNA solution were reverse transcribed using the miScript II RT Kit (including polyadenylation of miRNAs and reverse transcription using an oligo-dT that binds to a universal RT-sequence). Specific miRNA levels were quantified by qPCR using miScript SYBR Green Kit including miScript miRNA assay for hsa-miR-711, hsa-miR21, hsamiR155, and hsa-miR-326, together with the universal RT primer, according to the manufacturer's protocol (CFX96 Real-Time system, Bio-Rad). Relative quantities of miRNAs were calculated using the Ct value after normalization to control miRNAs. Caenorhabditis elegans miRNA-39 (cel-miRNA-39) was included as spiked-in control for extracellular miRNA.

mmu-TRPA1 = biological target: T1, mmu-TRPA1 (Mus musculus, UniProt Q8BLA8); test: Whole-cell patch clamp in CHO cells transfected with wild-type mmu-Trpa1 cDNA; type: cell-based; settings: miR-711 10 μM, AITC 50 μM
T1 construct: HA; expressed in transfected cells; host or cells: CHO cells (ATCC CRL-9096), transient transfection with Lipofectamine 2000
Description: Constructs. The cDNAs of mouse pcDNA3.1-Trpa1, pcDNA3.1-Trpv1, pcDNA3.1-Trpv2, pcDNA3.1-Trpv3, and pcDNA3.1-Trpv4 were kindly provided Dr. Sun Work Hwang from Korea University. Mouse Trpa1 cDNA was subcloned into pCGN-HA backbone (Addgene) using In-Fusion HD Cloning Kit (Clontech Laboratories, CA). Q5 Site-Directed Mutagenesis Kit was used to generate mTrpa1 mutant (M1-M13) based on pCGN-mTrpa1.
Cell Culture and Transfection. CD4^+ Myla cell line was cultured in RPMI 1640 media (GIBCO), supplemented with 2 mM Glutamine (GIBCO), 100 U/mL IL-2 (Sigma), 100 U/mL IL-4 (Sigma), and 10% human AB serum (Sigma). HuT 102 cell line was cultured in RPMI 1640 supplemented with pyruvate, HEPES, and 10% (v/v) fetal bovine serum (HyClone). HEK293-hTRPA1 stable cell line was cultured in MEM (GIBCO) containing 2 mM Glutamine, 4 μg/mL Blasticidin, 10% FBS (v/v). B16 and CHO cells were cultured in high glucose (4.5 g/L) Dulbecco's Modified Eagle's Medium (GIBCO) containing 10% (v/v) fetal bovine serum (GIBCO). Culture media were supplemented with 50 units/mL of penicillin and 50 μg/mL streptomycin, and cultures were maintained with 5% CO2 in 37° C. incubator. Transfection (2 μg cDNA) was performed with Lipofectamine™ 2000 Reagent (Invitrogen) at 80% confluency and the transfected cells were cultured in the same media for 48 hr before electrophysiological and biochemical studies. […]

naive mice = type: in vivo, mouse
Description: as §1

[1] = high concentrations, 5 and 10 mM, 5 μL
[2] = low concentrations, 10 and 100 μM

T1 sequence (Q8BLA8 whole entry): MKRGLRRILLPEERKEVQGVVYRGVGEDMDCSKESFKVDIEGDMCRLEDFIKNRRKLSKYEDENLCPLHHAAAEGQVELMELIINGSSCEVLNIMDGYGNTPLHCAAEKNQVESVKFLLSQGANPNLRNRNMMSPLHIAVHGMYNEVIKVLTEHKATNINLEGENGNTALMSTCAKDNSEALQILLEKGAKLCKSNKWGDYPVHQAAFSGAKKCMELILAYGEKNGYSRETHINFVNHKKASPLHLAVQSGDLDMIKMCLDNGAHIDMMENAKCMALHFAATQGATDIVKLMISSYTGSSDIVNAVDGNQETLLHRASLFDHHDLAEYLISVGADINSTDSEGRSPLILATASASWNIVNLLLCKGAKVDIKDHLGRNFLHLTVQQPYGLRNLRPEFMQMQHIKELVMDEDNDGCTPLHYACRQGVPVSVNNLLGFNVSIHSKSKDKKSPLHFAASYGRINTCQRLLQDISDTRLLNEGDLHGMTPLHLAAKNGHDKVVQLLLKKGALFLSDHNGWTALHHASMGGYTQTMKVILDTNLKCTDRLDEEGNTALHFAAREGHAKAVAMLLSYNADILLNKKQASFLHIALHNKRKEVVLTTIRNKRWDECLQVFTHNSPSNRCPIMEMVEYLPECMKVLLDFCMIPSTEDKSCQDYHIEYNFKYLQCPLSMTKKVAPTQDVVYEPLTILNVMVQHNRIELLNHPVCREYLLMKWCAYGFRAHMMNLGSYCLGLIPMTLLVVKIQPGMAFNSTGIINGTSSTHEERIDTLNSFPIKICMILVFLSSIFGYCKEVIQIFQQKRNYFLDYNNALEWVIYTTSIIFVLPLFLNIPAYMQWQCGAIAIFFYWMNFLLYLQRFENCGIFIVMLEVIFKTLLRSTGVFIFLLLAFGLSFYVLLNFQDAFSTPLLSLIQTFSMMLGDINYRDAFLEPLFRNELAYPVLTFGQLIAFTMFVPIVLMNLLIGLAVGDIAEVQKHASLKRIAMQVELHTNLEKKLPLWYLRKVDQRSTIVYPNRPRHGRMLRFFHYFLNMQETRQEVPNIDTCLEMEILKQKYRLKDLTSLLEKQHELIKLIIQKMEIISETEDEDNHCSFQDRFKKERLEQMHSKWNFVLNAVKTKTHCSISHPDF

## CCC(=N\O)/C(C)=C/c1ccc(F)cc1 [A967079, (1E,3E)-1-(4-Fluorophenyl)-2-methyl-1-pentene-3-one oxime]
mice
  effect on hsa-miR-711 AV-induced persistent itch: Inhibition

## C=CCN=C=S [AITC]
mmu-TRPA1
  inward currents: induce inward currents
Naive mice; [1]
  scratching after intradermal cheek injection: not scratching
  wiping after intradermal cheek injection: induced wiping
Naive mice; [2]
  itch after intradermal cheek injection: mild itch
  pain after intradermal cheek injection: no pain
Naive mice; naive mice, 1 mM, 5 μL
  scratching (itch) after intradermal cheek injection: induced both scratching and wiping
  wiping (pain) after intradermal cheek injection: induced both scratching and wiping

## NH2-FRNELAYPVLTFGQL-COOH (H-FRNELAYPVLTFGQL-OH) [blocking peptide]
mice
  effect on hsa-miR-711 AV-induced persistent itch: Inhibition

## miR-711: mmu-miR-711: gggacccggggagagauguaag (SEQ ID NO: 5) (GGGACCCGGGGAGAGAUGUAAG; chemistry not given here)
mmu-TRPA1
  inward currents: induce inward currents
Naive mice; 0.01 and 0.1 mM
  scratching after intradermal cheek injection: mild but significant scratching
Naive mice; Tlr7−/− mice versus WT
  miR-711-induced pruritus in knockout mice: unaltered
Naive mice; Trpa1−/− mice versus WT
  miR-711-induced acute itch in knockout mice: abrogated
Naive mice; all the concentrations tested
  pain (wiping) after intradermal cheek injection: failed to evoke pain (wiping)
Naive mice; compared with chloroquine (CQ) and histamine, first 60 sec
  onset (latency) of pruritus: very rapid, with a shorter latency
Naive mice; highest dose, 5 mM, 5 μL
  scratching after intradermal cheek injection: 395.2±32.8 bouts per hour
Naive mice; naive mice, 1 mM, 5 μL
  scratching (itch) after intradermal cheek injection: evoked marked scratching
Naive mice; naive mice, 1 mM, 5 μL, listed as mmu-miR-711
  scratching (itch) after intradermal cheek injection: able to evoke pruritus
